One data set deals with OEC-M1 cells. As to conditions: read-out: cytotoxicity IC50, OEC-M1 oral cancer cells; cited from earlier work.
In another data set the test system is SAS cells. As to conditions: read-out: cytotoxicity IC50, SAS oral cancer cells; cited from earlier work.
For the next data set, the system named is MDA-MB-231 cells. Description: HGF-induced cell migration wound-healing assay. The following applies: Homo sapiens, MDA-MB-231, 24 h, read-out: Antimigratory activity IC50 ± SEM, MDA-MB-231, wound-healing assay, HGF 40 ng/mL, 24 h.
Data set [1] deals with human placental glutathione S-transferase (GST). The following applies: read-out: inhibition of human placental GST activity IC50; cited from earlier work.

As to `COc1cc(/C=C/C(=O)OCCc2ccc(O)cc2)ccc1O` [Compound 5, Tyrosol ferulate], the IC50 with OEC-M1 cells and in the data set on SAS cells was > 100 µM in each case. As for `O=C(/C=C/c1ccc(O)cc1)OCCc1ccc(O)cc1` [Compound 6, Tyrosol coumarate], the IC50 in the data set on OEC-M1 cells and with SAS cells was > 100 µM in each case. In the case of `COc1cc(/C=C/C=N/CCc2ccc(O)cc2)cc(OC)c1O` [Compound 11], in the data set on MDA-MB-231 cells, the IC50 was < 5 µM. For the molecule `COc1cc(/C=C/COC(=O)/C=C/c2ccc(O)c(OC)c2)ccc1O` [Compound 40, coniferyl ferulate], the IC50 in data set [1] was 0.3 µM.

These data come from article PMC5073051 (European journal of medicinal chemistry, 2016).
